Activity calls are given as the source filed them. The calls are words filed in the database; no cut-off is given here.
What was measured:
[1] = target: Sigma intracellular receptor 2 (Homo sapiens, UniProt Q5BJF2); settings: Compound concentration 10.0 uM
[2] = target: TGF-beta receptor type-1 (Homo sapiens) (UniProt P36897); settings: Compound concentration 1000.0 nM
[3] = target: Beta-adrenergic receptor kinase 1 (Homo sapiens) (UniProt P25098); settings: Compound concentration 1000.0 nM
[4] = target: Protein kinase C iota type (Homo sapiens) (UniProt P41743); settings: Compound concentration 1000.0 nM
[5] = target: Membrane-associated tyrosine- and threonine-specific cdc2-inhibitory kinase (Homo sapiens) (UniProt Q99640); settings: Compound concentration 1000.0 nM
[6] = target: SRSF protein kinase 1 (Homo sapiens) (UniProt Q96SB4); settings: Compound concentration 1000.0 nM
[7] = target: GABA-A receptor; anion channel (Rattus norvegicus) (UniProt O09028+P15431+P18506+P18508+P19969+P20236+P23574+P23576+P28471+P28473+P30191+P62813+P63079+P63138+Q91ZM7+Q9ES14); settings: Compound concentration 10.0 uM
[8] = system: NCI-H146; assay: CellTiter-Glo Luminescent Cell Viability Assay (BCL-XL dependent cell line H146); type: functional, cell-based; settings: Homo sapiens
[9] = target: Angiopoietin-1 receptor (Homo sapiens) (UniProt Q02763); settings: Compound concentration 1000.0 nM
[10] = target: MAP/microtubule affinity-regulating kinase 4 (Homo sapiens) (UniProt Q96L34); settings: Compound concentration 1000.0 nM
[11] = target: Sigma non-opioid intracellular receptor 1 (Homo sapiens, UniProt Q99720); settings: Compound concentration 10.0 uM
[12] = target: Serine/threonine-protein kinase BRSK1 (Homo sapiens) (UniProt Q8TDC3); settings: Compound concentration 1000.0 nM
[13] = target: BDNF/NT-3 growth factors receptor (Homo sapiens) (UniProt Q16620); settings: Compound concentration 1000.0 nM
[14] = system: Mast/stem cell growth factor receptor Kit (Homo sapiens), P10721 [D816V]; settings: Compound concentration 1000.0 nM
[15] = target: Serine/threonine-protein kinase ULK2 (Homo sapiens) (UniProt Q8IYT8); settings: Compound concentration 1000.0 nM
[16] = target: Mitogen-activated protein kinase kinase kinase 9 (Homo sapiens) (UniProt P80192); settings: Compound concentration 1000.0 nM
[17] = target: T1, Alpha-1B adrenergic receptor (Homo sapiens) (UniProt P35368); settings: Compound concentration 10.0 uM
T1 sequence (whole entry): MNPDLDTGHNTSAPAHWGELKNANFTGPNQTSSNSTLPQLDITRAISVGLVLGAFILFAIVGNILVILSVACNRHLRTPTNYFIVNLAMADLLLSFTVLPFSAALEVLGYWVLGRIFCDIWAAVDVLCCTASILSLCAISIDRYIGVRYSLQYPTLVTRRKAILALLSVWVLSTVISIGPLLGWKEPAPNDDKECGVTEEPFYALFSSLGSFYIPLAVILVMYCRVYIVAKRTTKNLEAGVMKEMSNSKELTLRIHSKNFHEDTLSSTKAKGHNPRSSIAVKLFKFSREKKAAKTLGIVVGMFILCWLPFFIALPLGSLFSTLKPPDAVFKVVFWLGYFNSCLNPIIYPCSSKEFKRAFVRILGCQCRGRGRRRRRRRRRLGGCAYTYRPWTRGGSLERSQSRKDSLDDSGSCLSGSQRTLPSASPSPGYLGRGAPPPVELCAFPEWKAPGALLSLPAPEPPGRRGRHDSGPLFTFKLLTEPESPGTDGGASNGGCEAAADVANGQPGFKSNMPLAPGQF

[18] = target: Glycogen synthase kinase-3 alpha (Homo sapiens) (UniProt P49840); settings: Compound concentration 1000.0 nM
[19] = target: Serine/threonine-protein kinase Nek3 (Homo sapiens) (UniProt P51956); settings: Compound concentration 1000.0 nM
[20] = target: Myosin light chain kinase 2, skeletal/cardiac muscle (Homo sapiens) (UniProt Q9H1R3); settings: Compound concentration 1000.0 nM
[21] = target: Cyclin-dependent kinase 16 (Homo sapiens) (UniProt Q00536); settings: Compound concentration 1000.0 nM
[22] = target: Calcium/calmodulin-dependent protein kinase kinase 2 (Homo sapiens) (UniProt Q96RR4); settings: Compound concentration 1000.0 nM
[23] = target: Receptor tyrosine-protein kinase erbB-2 (Homo sapiens) (UniProt P04626); settings: Compound concentration 1000.0 nM
[24] = target: Fibroblast growth factor receptor 4 (Homo sapiens) (UniProt P22455); settings: Compound concentration 1000.0 nM
[25] = target: Serine/threonine-protein kinase OSR1 (Homo sapiens) (UniProt O95747); settings: Compound concentration 1000.0 nM
[26] = target: Mitogen-activated protein kinase kinase kinase 14 (Homo sapiens) (UniProt Q99558); settings: Compound concentration 1000.0 nM
[27] = target: Ephrin type-A receptor 4 (Homo sapiens) (UniProt P54764); settings: Compound concentration 1000.0 nM
[28] = target: Vascular endothelial growth factor receptor 1 (Homo sapiens) (UniProt P17948); settings: Compound concentration 1000.0 nM
[29] = system: Epidermal growth factor receptor (Homo sapiens), P00533 [G719C]; settings: Compound concentration 1000.0 nM
[30] = target: Cyclin-dependent kinase 4 (Homo sapiens) (UniProt P11802); settings: Compound concentration 1000.0 nM
[31] = target: Inhibitor of nuclear factor kappa-B kinase subunit alpha (Homo sapiens) (UniProt O15111); settings: Compound concentration 1000.0 nM
[32] = target: Death-associated protein kinase 2 (Homo sapiens) (UniProt Q9UIK4); settings: Compound concentration 1000.0 nM
[33] = target: Rhodopsin kinase GRK1 (Homo sapiens) (UniProt Q15835); settings: Compound concentration 1000.0 nM
[34] = target: Mitogen-activated protein kinase kinase kinase 11 (Homo sapiens) (UniProt Q16584); settings: Compound concentration 1000.0 nM
[35] = target: Serine/threonine-protein kinase TBK1 (Homo sapiens) (UniProt Q9UHD2); settings: Compound concentration 1000.0 nM
[36] = target: Peripheral plasma membrane protein CASK (Homo sapiens) (UniProt O14936); settings: Compound concentration 1000.0 nM
[37] = system: Phosphatidylinositol 4,5-bisphosphate 3-kinase catalytic subunit alpha isoform (Homo sapiens), P42336 [H1047Y]; settings: Compound concentration 1000.0 nM

Cyclin-dependent kinase 16 (Homo sapiens), sequence (Q00536 whole entry): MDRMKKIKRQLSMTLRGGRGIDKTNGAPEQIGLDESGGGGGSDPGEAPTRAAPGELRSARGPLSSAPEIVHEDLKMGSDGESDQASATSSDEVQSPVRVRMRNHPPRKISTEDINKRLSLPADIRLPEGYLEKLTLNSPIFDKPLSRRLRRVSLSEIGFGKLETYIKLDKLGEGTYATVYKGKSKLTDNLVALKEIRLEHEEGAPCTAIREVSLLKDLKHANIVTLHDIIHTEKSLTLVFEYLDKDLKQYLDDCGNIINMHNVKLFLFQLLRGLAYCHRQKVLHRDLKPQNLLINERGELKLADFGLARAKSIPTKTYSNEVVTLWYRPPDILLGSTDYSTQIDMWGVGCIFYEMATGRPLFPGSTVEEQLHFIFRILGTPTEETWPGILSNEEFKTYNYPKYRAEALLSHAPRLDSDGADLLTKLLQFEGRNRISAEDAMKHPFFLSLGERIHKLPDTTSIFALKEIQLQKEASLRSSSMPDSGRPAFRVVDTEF
MAP/microtubule affinity-regulating kinase 4 (Homo sapiens), sequence (Q96L34 whole entry): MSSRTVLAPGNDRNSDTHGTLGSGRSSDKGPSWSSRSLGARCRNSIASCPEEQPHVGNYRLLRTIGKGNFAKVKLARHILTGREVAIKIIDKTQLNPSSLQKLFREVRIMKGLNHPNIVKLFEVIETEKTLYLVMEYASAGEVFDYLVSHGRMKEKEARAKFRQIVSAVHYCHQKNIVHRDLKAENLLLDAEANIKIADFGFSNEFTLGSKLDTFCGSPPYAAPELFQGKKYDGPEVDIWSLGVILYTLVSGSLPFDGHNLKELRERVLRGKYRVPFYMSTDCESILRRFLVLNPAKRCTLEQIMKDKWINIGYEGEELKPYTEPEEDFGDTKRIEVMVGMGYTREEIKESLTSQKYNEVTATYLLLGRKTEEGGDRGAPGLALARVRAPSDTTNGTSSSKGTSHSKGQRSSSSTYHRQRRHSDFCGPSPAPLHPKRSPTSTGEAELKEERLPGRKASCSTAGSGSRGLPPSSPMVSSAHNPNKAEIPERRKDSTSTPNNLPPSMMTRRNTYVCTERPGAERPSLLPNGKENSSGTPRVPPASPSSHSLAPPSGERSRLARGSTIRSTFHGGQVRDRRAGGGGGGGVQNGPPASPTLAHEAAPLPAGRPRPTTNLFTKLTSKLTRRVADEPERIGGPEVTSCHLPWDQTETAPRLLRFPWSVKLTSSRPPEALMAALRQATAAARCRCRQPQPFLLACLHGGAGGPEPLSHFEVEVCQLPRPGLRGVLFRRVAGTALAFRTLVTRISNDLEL
Mitogen-activated protein kinase kinase kinase 9 (Homo sapiens), sequence (P80192 whole entry, looked up): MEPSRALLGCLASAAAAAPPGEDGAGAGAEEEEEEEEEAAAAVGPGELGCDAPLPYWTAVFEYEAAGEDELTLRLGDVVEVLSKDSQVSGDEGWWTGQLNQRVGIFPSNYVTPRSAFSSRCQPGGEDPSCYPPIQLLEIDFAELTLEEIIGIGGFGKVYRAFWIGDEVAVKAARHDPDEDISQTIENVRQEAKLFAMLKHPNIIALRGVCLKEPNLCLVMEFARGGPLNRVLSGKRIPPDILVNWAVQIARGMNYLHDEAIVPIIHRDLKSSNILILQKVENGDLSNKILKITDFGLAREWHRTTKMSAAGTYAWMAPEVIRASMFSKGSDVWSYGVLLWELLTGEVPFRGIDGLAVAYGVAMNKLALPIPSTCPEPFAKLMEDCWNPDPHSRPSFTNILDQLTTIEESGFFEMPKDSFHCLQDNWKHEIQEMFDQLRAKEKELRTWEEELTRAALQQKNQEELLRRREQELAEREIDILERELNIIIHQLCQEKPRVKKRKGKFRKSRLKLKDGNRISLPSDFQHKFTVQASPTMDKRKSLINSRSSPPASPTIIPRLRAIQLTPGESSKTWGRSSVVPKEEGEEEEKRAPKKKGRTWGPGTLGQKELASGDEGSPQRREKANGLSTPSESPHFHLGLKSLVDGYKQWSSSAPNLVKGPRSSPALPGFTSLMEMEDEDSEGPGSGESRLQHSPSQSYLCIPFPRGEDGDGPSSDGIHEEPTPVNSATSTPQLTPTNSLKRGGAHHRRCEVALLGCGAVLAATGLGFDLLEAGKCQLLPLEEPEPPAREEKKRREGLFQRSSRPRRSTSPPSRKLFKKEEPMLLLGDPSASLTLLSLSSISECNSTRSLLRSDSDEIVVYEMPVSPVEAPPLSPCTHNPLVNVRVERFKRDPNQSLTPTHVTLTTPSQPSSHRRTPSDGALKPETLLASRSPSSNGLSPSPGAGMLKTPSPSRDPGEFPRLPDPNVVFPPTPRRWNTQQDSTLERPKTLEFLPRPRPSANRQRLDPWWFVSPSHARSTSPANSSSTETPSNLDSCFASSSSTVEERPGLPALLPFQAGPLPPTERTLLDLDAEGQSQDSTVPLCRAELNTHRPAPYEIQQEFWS
Serine/threonine-protein kinase Nek3 (Homo sapiens), sequence (P51956 whole entry): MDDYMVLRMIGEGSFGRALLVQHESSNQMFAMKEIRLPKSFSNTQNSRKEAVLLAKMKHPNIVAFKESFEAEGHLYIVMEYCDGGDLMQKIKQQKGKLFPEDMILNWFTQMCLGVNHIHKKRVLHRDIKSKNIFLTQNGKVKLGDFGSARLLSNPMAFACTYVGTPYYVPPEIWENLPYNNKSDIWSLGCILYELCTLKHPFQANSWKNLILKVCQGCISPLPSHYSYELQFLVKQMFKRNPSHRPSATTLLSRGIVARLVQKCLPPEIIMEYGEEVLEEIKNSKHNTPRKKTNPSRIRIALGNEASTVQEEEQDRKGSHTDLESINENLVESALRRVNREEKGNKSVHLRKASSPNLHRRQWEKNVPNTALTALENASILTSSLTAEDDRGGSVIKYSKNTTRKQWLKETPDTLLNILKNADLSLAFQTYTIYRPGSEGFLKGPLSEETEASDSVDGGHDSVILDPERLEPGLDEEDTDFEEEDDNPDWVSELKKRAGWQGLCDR
Vascular endothelial growth factor receptor 1 (Homo sapiens), sequence (P17948 whole entry): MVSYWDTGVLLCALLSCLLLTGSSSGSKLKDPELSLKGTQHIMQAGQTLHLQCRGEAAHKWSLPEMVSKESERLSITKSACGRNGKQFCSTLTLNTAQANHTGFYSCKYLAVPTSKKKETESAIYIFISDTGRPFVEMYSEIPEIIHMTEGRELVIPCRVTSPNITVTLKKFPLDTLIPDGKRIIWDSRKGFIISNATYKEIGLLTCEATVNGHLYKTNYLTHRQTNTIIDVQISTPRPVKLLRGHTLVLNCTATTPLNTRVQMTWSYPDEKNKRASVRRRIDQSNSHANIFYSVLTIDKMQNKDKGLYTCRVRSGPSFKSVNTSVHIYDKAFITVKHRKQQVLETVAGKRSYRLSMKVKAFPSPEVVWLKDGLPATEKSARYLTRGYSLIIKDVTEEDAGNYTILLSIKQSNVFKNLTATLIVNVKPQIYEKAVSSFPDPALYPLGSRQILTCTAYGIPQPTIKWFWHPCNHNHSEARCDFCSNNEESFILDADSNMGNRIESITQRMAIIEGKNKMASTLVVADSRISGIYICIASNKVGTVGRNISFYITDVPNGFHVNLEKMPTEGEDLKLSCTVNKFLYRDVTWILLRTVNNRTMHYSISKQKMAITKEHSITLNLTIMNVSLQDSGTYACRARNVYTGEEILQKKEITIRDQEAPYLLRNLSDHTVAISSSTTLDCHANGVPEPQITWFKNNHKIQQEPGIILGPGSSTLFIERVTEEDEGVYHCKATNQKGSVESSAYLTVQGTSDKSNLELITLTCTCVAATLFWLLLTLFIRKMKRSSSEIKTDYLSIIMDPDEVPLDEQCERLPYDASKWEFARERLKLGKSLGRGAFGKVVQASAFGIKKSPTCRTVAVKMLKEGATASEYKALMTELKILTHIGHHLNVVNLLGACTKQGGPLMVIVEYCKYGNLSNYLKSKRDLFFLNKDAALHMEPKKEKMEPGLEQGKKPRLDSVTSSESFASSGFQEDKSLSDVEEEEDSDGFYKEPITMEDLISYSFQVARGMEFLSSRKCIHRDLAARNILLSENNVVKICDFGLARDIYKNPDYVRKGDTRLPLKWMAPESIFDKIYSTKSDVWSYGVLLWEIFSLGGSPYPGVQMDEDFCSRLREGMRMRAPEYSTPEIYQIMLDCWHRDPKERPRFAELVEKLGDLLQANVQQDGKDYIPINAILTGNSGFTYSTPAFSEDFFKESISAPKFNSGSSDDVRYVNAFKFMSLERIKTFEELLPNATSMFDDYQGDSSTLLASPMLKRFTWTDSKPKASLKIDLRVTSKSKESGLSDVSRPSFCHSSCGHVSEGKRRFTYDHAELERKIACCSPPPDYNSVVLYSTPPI
Fibroblast growth factor receptor 4 (Homo sapiens), sequence (P22455 22-802 limits assumed): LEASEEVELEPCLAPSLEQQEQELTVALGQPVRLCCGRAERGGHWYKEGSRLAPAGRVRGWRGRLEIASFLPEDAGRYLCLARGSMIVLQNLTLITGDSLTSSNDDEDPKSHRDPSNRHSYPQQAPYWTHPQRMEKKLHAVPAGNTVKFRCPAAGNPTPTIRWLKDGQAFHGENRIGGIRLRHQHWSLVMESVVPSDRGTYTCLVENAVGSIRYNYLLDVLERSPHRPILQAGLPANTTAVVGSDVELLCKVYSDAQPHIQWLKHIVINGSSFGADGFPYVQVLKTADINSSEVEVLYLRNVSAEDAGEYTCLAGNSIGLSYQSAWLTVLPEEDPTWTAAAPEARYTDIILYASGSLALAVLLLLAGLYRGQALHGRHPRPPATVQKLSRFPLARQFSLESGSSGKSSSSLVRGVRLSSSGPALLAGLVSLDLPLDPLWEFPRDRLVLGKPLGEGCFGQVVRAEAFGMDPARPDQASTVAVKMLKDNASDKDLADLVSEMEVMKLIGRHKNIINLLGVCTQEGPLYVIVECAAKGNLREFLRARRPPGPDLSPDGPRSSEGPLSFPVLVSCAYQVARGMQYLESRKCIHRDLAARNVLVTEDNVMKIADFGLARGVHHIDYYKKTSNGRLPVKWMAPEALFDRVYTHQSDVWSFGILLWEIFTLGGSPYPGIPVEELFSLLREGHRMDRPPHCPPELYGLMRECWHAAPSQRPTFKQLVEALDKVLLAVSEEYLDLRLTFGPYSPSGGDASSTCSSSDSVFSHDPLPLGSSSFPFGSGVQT

CN(C)CC#Cc1ccc(OCCCc2sc(N3CCc4cccc(C(=O)Nc5nc6ccccc6s5)c4C3)nc2C(=O)O)c(F)c1 [A-1155463]
inhibition [1]: 83%
residual activity [2]: 100%
residual activity [3]: 100%
residual activity [4]: 100%
residual activity [5]: 71%
residual activity [6]: 100%
inhibition [7]: 36.8%
EC50 [8]: 70 nM (active)
residual activity [9]: 100%
residual activity [10]: 76%
inhibition [11]: 53.3%
residual activity [12]: 100%
residual activity [13]: 100%
residual activity [14]: 100%
residual activity [15]: 100%
residual activity [16]: 92%
inhibition [17]: 0.97%
residual activity [18]: 89%
residual activity [19]: 100%
residual activity [20]: 100%
residual activity [21]: 100%
residual activity [22]: 100%
residual activity [23]: 100%
residual activity [24]: 100%
residual activity [25]: 86%
residual activity [26]: 100%
residual activity [27]: 88%
residual activity [28]: 92%
residual activity [29]: 91%
residual activity [30]: 100%
residual activity [31]: 81%
residual activity [32]: 90%
residual activity [33]: 95%
residual activity [34]: 100%
residual activity [35]: 100%
residual activity [36]: 100%
residual activity [37]: 100%
